Experiments:
[1] = biological target: IL-2-Inducible T-Cell Kinase (ITK) (Homo sapiens (Human), UniProt Q08881); test: ITK enzyme assay (IL-2-inducible T-cell kinase activity); format: biochemical; details: geometric mean of count n
Method: ITK activity was determined by measuring the effect of a test compound in an ITK enzyme assay.
1.0 M HEPES Buffer pH 7.5 solution was prepared as follows: 238.3 g HEPES free acid (Sigma) and 800 mL of water were combined, and the mixture was stirred until complete dissolution. The pH was adjusted to 7.5 via titration with 5N NaOH and the volume adjusted to 1000 mL. The solution was filtered and sterilized.
ITK assay buffer was prepared as follows: 50 mL of HPLC-grade water was treated with 2 mL of 1.0 M HEPES Buffer, 500 μL of 2% Gelatin (Sigma), 1.0 mL of aqueous MgCl2 solution (1.0 M), and 1.0 mL of aqueous glutathione solution (0.5 M), and the solution was mixed. The solution was brought to 99 mL in a graduated cylinder by addition of water and sterilized through a 0.2 μm filter. 0.1 mL of Brij-35™ Surfact-Amps™ Detergent Solution (10% w/v aqueous solution, ThermoFisher) and 1.0 mL of ATP (Teknova,100 mM) were added and the solution was mixed.
Preparation of 1.33× ITK enzyme solution was as follows: 49.99 mL of ITK assay buffer was treated with 4.1 μL of ITK enzyme (ITK FL (N-Flag and C-His tagged, […]) Lake Pharma, 0.25 mg/ml in a buffer containing 25 mM Tris pH 7.8, 150 mM NaCl, 10% glycerol and 2 mM TCEP) and the mixture was gently agitated. The resulting solution was stored on ice. 30 Minutes prior to use, the enzyme solution was removed from ice and equilibrated to RT by incubation in a RT water bath.
Preparation of 4× ITK substrate solution was as follows: 50 mL of ITK assay buffer was treated with 100 μL of BTK peptide (China Peptide Company, 2 mM stock solution in DMSO). The tube was capped, mixed by gently inverting the tube, and then stored on ice. 30 Minutes prior to use, the substrate solution was removed from ice and equilibrated to RT by incubation in a RT water bath.
At the time of assay, 7.5 μL of the 1.33× ITK enzyme solution was added to plate wells containing 0.1 μL of varying concentrations of test compound in DMSO. The plate was incubated 30 min at RT. The plate wells were each treated with 2.5 uL of the 4× ITK substrate solution and the plate was sealed (TopSeal™, Perkin Elmer). The plate was spun at 1000 rpm for 30 sec and then incubated for 60 min at RT. The seal was removed, and each well was treated with 10 μL of Stop/Detect Buffer (20 mM HEPES pH 7.5, 0.01% gelatin, 1 nM LANCE PT66 (Perkin Elmer), 16.5 μg/ml Surelight APC (Perkin Elmer), 10 mM EDTA, 250 mM NaCl). The plate was again covered and was spun at 1000 rpm for […]. The plate was allowed to incubate overnight at RT and in a closed carrier to reduce dehydration. The seal was removed, and the fluorescence was read with a plate reader with an excitation wavelength of […]. The concentrations and resulting effect values for the tested compound were plotted and the concentration of compound required for 50% effect (IC50) was determined with the four-parameter logistic dose response equation.

[2] = test system: activated CD4+ human T-cells (IL-2); test: IL-2 inhibition in supernatants from activated CD4+ human T-cells (cisbio HTRF); format: cell-based; details: T-cell; CD3/CD28-activated CD4+ human T cells, ImmunoCult stimulation 20 to 24 hrs; geometric mean of count n
Method: IL-2 inhibition activity in supernatants from activated CD4+ human T-cells was determined by measuring the effect of a test compound on the activity using the cisbio HTRF™ technology.
Human CD4+ T cells were activated with CD3/CD28 for 3 days and expanded for an additional 4-6 days (7 to 9 days total). On day 0, frozen CD4+ T cells were thawed, treated with CD3/CD28 Dynabeads, and incubated at 37° C./5% CO2. On day 3, the beads were removed, and the cells were diluted to 5×10^5 cells/cm^2, placed in G-Rex10 flask, and incubated at 37° C./5% CO2. On day 7 to day 9 the cells were removed from the G-Rex flasks, counted and diluted back to 1×10^6 cells/ml in standard tissue culture flask.
The expanded CD4+ T-cells were centrifuged at 300×g for 10 minutes and resuspended to 0.5 million cells per ml (30,000 cells/well). 60 μl of CD4+ T cells were added per well to a 384 well plate containing 0.1 μL of varying concentrations of test compound in DMSO. The plates were incubated for 15 min at 37° C./5% CO2. 20 μl of diluted ImmunoCult™ (STEMCELL Technologies, 1:12.5 in T cell assay media) were added to all wells of the plate (1:50 final assay concentration). The plates were incubated for an additional 20 to 24 hrs at 37° C./5% CO2. The plates were centrifuged at 300×g for 10 minutes. 16 μL of supernatant was removed and combined with 4 μl of IL-2 HTRF Abs. (cisbio kit). Plates were incubated for 3 hours at RT and read with an EnVision plate reader at 665 nm and 615 nm wavelengths. The concentrations and resulting effect values for the tested compound were plotted and the concentration of compound required for 50% effect (IC50) was determined with the four-parameter logistic dose response equation.

Sequence of IL-2-Inducible T-Cell Kinase (ITK) (Q08881 whole entry): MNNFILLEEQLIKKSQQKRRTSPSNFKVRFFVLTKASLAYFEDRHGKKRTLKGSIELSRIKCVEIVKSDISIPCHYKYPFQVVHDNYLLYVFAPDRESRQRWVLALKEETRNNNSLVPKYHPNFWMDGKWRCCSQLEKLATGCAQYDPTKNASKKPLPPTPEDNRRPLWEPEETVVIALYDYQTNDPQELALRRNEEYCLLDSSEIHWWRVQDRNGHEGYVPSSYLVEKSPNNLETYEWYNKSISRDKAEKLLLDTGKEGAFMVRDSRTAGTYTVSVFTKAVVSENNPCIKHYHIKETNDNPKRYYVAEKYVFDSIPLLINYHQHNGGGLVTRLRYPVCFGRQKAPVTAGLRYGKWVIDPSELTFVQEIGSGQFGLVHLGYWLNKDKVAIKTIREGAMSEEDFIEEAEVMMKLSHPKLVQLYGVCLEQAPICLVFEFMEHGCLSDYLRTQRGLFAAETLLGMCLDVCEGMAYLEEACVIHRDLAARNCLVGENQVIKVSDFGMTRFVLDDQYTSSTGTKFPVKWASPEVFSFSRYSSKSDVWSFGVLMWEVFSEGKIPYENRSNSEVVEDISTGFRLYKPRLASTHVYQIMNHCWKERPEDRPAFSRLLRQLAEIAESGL

| SMILES | IC50 [1] [nM] | IC50 [2] [nM] |
| --- | --- | --- |
| C[C@@H](C(=O)N(C)c1cnc2[nH]c(-c3n[nH]c4c3C[C@@H]3C[C@]3(C)C4)nc2c1)N1CC2CC(C1)O2 (single isomer, unassigned) [Example 41] | 116 | 600 |
| C[C@H](C(=O)N(C)c1cnc2[nH]c(-c3n[nH]c4c3C[C@@H]3C[C@]3(C)C4)nc2c1)N1CC2CC(C1)O2 (single isomer, unassigned) [Example 42] | 21 | 143 |
| CC(C)[C@@H](C(=O)N(C)c1cnc2[nH]c(-c3n[nH]c4c3CC3C[C@]3(C)C4)nc2c1)N1CCOCC1 (stereo in doubt) [Example 3, (S)-N,3-Dimethyl-N-(2-((4aR,5aR)-5a-methyl-1,4,4a,5,5a,6-hexahydrocyclopropa[f]indazol-3-yl)-3H-imidazo[4,5-b]pyridin-6-yl)-2-morpholinobutanamide] | 38 | 320 |
| CC[C@@H](C(=O)N(C)c1cnc2[nH]c(-c3n[nH]c4c3C[C@@H]3C[C@]3(C)C4)nc2c1)N1CCOCC1 [Example 4, (S)-N-Methyl-N-(2-((4aS,5aR)-5a-methyl-1,4,4a,5,5a,6-hexahydrocyclopropa[f]indazol-3-yl)-3H-imidazo[4,5-b]pyridin-6-yl)-2-morpholinobutanamide] | 38 | 205 |
| CN(C(=O)C(F)(F)C1CCOCC1)c1cnc2nc(-c3n[nH]c4c3CCC(C)(C)C4)[nH]c2c1 [Example 5, N-(2-(6,6-Dimethyl-4,5,6,7-tetrahydro-1H-indazol-3-yl)-1H-imidazo[4,5-b]pyridin-6-yl)-2,2-difluoro-N-methyl-2-(tetrahydro-2H-pyran-4-yl)acetamide] | 14 | 375 |
| CN(C(=O)Cn1cccn1)c1cnc2nc(-c3n[nH]c4c3C[C@@H]3C[C@]3(C)C4)[nH]c2c1 [Example 6, N-Methyl-N-(2-((4aS,5aR)-5a-methyl-1,4,4a,5,5a,6-hexahydrocyclopropa[f]indazol-3-yl)-1H-imidazo[4,5-b]pyridin-6-yl)-2-(1H-pyrazol-1-yl)acetamide] | 26 | 343 |
| C[C@@H](C(=O)N(C)c1cnc2nc(-c3n[nH]c4c3C[C@@H]3C[C@]3(C)C4)[nH]c2c1)n1cccn1 [Example 7, (S)-N-Methyl-N-(2-((4aS,5aR)-5a-methyl-1,4,4a,5,5a,6-hexahydrocyclopropa[f]indazol-3-yl)-1H-imidazo[4,5-b]pyridin-6-yl)-2-(1H-pyrazol-1-yl)propenamide] | 70 | 398 |
| CC(C)(C(=O)Nc1cnc2[nH]c(-c3n[nH]c4c3C[C@@H]3C[C@]3(C)C4)nc2c1)N1CCOCC1 [Example 16, 2-Methyl-N-(2-((4aS,5aR)-5a-methyl-1,4,4a,5,5a,6-hexahydrocyclopropa[f]indazol-3-yl)-3H-imidazo[4,5-b]pyridin-6-yl)-2-morpholinopropanamide] |  | 2110 |
| CC(C(=O)N(C)c1cnc2[nH]c(-c3n[nH]c4c3C[C@@H]3C[C@]3(C)C4)nc2c1)N1CCOCC1 (stereo partly drawn) [Example 27, N-Methyl-N-(2-((4aS,5aR)-5a-methyl-1,4,4a,5,5a,6-hexahydrocyclopropa[f]indazol-3-yl)-3H-imidazo[4,5-b]pyridin-6-yl)-2-morpholinopropanamide] | 62 |  |
| C[C@@H](C(=O)Nc1ccc2[nH]c(-c3n[nH]c4c3CCC(C)(C)C4)nc2c1)N1CCOCC1 [Example 33, (S)-N-(2-(6,6-Dimethyl-4,5,6,7-tetrahydro-1H-indazol-3-yl)-1H-benzo[d]imidazol-5-yl)-2-morpholinopropanamide] |  | 315 |
| CCc1nc2[nH]c(-c3n[nH]c4c3C[C@@H]3C[C@]3(C)C4)nc2cc1N(C)C(=O)CN1CCOCC1 [Example 37, N-(5-Ethyl-2-((4aS,5aR)-5a-methyl-1,4,4a,5,5a,6-hexahydrocyclopropa[f]indazol-3-yl)-3H-imidazo[4,5-b]pyridin-6-yl)-N-methyl-2-morpholinoacetamide] |  | 815 |
| CN(C(=O)CC1CC(F)(F)C1)c1cnc2nc(-c3n[nH]c4c3C[C@@H]3C[C@]3(C)C4)[nH]c2c1 [Example 48, 2-(3,3-Difluorocyclobutyl)-N-methyl-N-(2-((4aS,5aR)-5a-methyl-1,4,4a,5,5a,6-hexahydrocyclopropa[f]indazol-3-yl)-1H-imidazo[4,5-b]pyridin-6-yl)acetamide] |  | 326 |
| CN(C(=O)CC1CC2(CCC2)C1)c1cnc2nc(-c3n[nH]c4c3C[C@@H]3C[C@]3(C)C4)[nH]c2c1 [Example 49, N-Methyl-N-(2-((4aS,5aR)-5a-methyl-1,4,4a,5,5a,6-hexahydrocyclopropa[f]indazol-3-yl)-1H-imidazo[4,5-b]pyridin-6-yl)-2-(spiro[3.3]heptan-2-yl)acetamide] |  | 157 |
| CN(C(=O)CC1CC2(C1)CC2(F)F)c1cnc2nc(-c3n[nH]c4c3C[C@@H]3C[C@]3(C)C4)[nH]c2c1 (stereo partly drawn) [Example 50, 2-(1,1-Difluorospiro[2.3]hexan-5-yl)-N-methyl-N-(2-((4aS,5aR)-5a-methyl-1,4,4a,5,5a,6-hexahydrocyclopropa[f]indazol-3-yl)-1H-imidazo[4,5-b]pyridin-6-yl)acetamide] |  | 171 |
| CN(C(=O)CC1CC2(C1)CC(F)(F)C2)c1cnc2nc(-c3n[nH]c4c3C[C@@H]3C[C@]3(C)C4)[nH]c2c1 [Example 54, 2-(6,6-Difluorospiro[3.3]heptan-2-yl)-N-methyl-N-(2-((4aS,5aR)-5a-methyl-1,4,4a,5,5a,6-hexahydrocyclopropa[f]indazol-3-yl)-1H-imidazo[4,5-b]pyridin-6-yl)acetamide] |  | 131 |
| CN(C(=O)C(C)(C)C1CCOCC1)c1cnc2[nH]c(-c3n[nH]c4c3CCC(C)(C)C4)nc2c1 [Example 93, N-(2-(6,6-Dimethyl-4,5,6,7-tetrahydro-1H-indazol-3-yl)-3H-imidazo[4,5-b]pyridin-6-yl)-N,2-dimethyl-2-(tetrahydro-2H-pyran-4-yl)propanamide] | 333 |  |
| CN(C(=O)C1CC(C)(C)C1)c1cnc2[nH]c(-c3n[nH]c4c3CCC(C)(C)C4)nc2c1 [Example 96, N-(2-(6,6-Dimethyl-4,5,6,7-tetrahydro-1H-indazol-3-yl)-3H-imidazo[4,5-b]pyridin-6-yl)-N,3,3-trimethylcyclobutane-1-carboxamide] | 311 |  |
| CN(C(=O)C12CC(C1)C2)c1cnc2[nH]c(-c3n[nH]c4c3CCC(C)(C)C4)nc2c1 [Example 111, N-(2-(6,6-Dimethyl-4,5,6,7-tetrahydro-1H-indazol-3-yl)-3H-imidazo[4,5-b]pyridin-6-yl)-N-methylbicyclo[1.1.1]pentane-1-carboxamide] | 416 |  |
